This is an account of results in patent publication US12398178B2, “Collections of peptides, peptide agents, and methods of use thereof” (Parabilis Medicines, Inc., priority 2018, dated 2025).

The target of one data set is T1, full-length β-Catenin (Homo sapiens, UniProt P35222).
T1 construct: Probe solution (15 nM full-length β-Catenin, 20 nM FITC labeled Axin peptide in buffer)
T1 sequence (P35222 1-781): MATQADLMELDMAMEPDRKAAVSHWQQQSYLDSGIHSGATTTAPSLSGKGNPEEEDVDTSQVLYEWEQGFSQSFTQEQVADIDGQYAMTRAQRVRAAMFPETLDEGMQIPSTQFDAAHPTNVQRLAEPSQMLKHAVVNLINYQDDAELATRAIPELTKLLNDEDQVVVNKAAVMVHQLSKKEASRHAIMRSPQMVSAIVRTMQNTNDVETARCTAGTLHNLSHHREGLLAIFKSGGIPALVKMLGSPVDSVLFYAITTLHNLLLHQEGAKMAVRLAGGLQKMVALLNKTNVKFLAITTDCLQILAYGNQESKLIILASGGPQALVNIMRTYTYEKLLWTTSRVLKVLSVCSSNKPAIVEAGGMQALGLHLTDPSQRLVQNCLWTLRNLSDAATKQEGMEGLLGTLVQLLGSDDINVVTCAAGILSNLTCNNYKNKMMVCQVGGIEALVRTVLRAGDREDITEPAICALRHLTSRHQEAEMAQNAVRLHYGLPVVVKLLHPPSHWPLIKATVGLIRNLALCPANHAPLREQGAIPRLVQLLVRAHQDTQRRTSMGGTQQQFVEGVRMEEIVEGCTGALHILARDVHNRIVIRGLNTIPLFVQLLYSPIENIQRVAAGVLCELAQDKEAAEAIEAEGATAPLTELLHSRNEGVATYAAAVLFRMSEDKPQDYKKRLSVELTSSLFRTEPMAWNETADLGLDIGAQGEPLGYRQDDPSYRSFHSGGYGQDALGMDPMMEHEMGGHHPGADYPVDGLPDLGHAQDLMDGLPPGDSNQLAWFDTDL
Briefly: Competition fluorescence polarization assay for binding to beta-catenin (displacement of FITC labeled Axin peptide probe). Conditions: 15 nM full-length β-Catenin, 20 nM FITC labeled Axin peptide probe, 3-fold serial dilution from 5 μM; read-out: bCat EC50. As to the method:
Peptide assessment: In one assay for assessing binding to beta-catenin, peptide solutions were prepared in buffer (50 mM Tris pH 8.0, 250 mM NaCl, 2% glycerol, 0.5 mM EDTA, 0.02% w/v sodium azide) using a 3-fold serial dilution from 5 μM. Probe solution (15 nM full-length β-Catenin, 20 nM FITC labeled Axin peptide in buffer ([FAM-PEG1-RRWPR(S5)ILD(S5)HVRRVWR (SEQ ID NO: 44)] where the two S5 residues are stapled, as reported in: Proc Natl Acad Sci USA. 2012 Oct. 30; 109(44):17942-7)) was prepared and incubated for 5 minutes, then 40 μL per well plated in a black polystyrene 384-well plate (Corning). Equal volume of the titrated peptide was added to the plate and incubated protected from light for 15 minutes prior to read. Reads were performed on a Spectramax M5 (Molecular Devices) in duplicate.

Data set [1] is described as follows: Measurement of LogK (log k IAM by HPLC on IAM.PC.DD2 column). It is filed as physicochemical. Conditions: 50 mM ammonium acetate pH 7.4 / acetonitrile, 30° C. Here is the method: Measurement of LogK: LogK values were measured on a Agilent 1260 HPLC with UV detector (254,280 nm) using a IAM.PC.DD2 100×4.6 mm column (Regis Technologies 1-774011-300) with a 6.5 min gradient of 0-90% B with mobile phase A of 50 mM ammonium acetate pH 7.4, and mobile phase B of Acetonitrile. The temperature was 30° C., the flow rate 1.5 mL/min, and the injection volume 3-5 uL. Calibration mixture IAM was purchased from Bio-mimetic Chromatography Ltd and used to run calibration, calculate CHI IAM value, then calculate logk IAM using equation: log k IAM=0.046*CHI IAM+0.42.

Data set [2] is described as follows: Measurement of LogD (CHI logD by HPLC). Type of data set: physicochemical. As to conditions: CHI log D, 50 mM ammonium acetate pH 7.4 / acetonitrile gradient, C-18 column, 25° C. As to the method: Measurement of LogD: LogD values were measured on a Agilent 1260 HPLC with UV detector (254, 220 nm), using a Gemini NX C-18 50×3 mm column (Phenomenex) with a 6-minute 0-100% mobile phase gradient of A) 50 mM ammonium acetate pH 7.4 and B) Acetonitrile at 25° C. with a flow rate of 1 mL/min and injection volume of 3-5 uL.

Positions of bridges follow the written chain, without caps; N, C: chain ends. No end group written: not given here. Linker 16 = not defined here

Turning to “37 (ADPATHRCEWAALHCELV; linker 8-15 via Linker 16 (inferred); reading uncertain) [Compound 37]”, the EC50 – broadly, the concentration that produces a half-maximal response – with full-length β-Catenin was > 10 µM. The LogK in data set [1] amounted to 1.34. Further, the LogD (commonly lipophilicity at a set pH, counting ionised and neutral species) in data set [2] turned out to be 0.84.
Turning to “GPAKPEAPGEDASPNELHYYYWELDSYLENVA-NH2 (C-terminus assumed) [Compound 27]”, the EC50 on full-length β-Catenin was > 10 µM. Besides, the chromatographic logD – broadly, a lipophilicity value derived from retention on a column – in data set [2] amounted to 0.64.
On the same counts, the results for “GPAKPEAPGEDASPNELYYYYDELHYYLHDVA-NH2 (C-terminus assumed) [Compound 25]” are > 10 µM and 0.59.
The matching figures for “GPAKPEAPGEDASPQELHDYYEILDNYLDWVA-NH2 (C-terminus assumed) [Compound 26]”: > 10 µM and 0.87.
The matching figures for “GPAKPEAPGEDASPTELYYYYDHLTDYLDVVP-NH2 (C-terminus assumed) [Compound 24]”: > 10 µM and 0.66.
